According to article PMC6941124 (International Journal of Molecular Sciences, 2019):
Residue numbers refer to the chain shown, from its start.

Legend:
[1] = target: T1, CK1δ R127Q (Homo sapiens, UniProt P48730, R127Q); assay: in vitro kinase assay, CK1δ mutant R127Q; format: biochemical; conditions: inhibitor at IC50 concentration previously determined for CK1δ WT; DMSO control = 100%; adjusted to WT = 50%; mean ± SD
T1 sequence (P48730 1-415 R127Q): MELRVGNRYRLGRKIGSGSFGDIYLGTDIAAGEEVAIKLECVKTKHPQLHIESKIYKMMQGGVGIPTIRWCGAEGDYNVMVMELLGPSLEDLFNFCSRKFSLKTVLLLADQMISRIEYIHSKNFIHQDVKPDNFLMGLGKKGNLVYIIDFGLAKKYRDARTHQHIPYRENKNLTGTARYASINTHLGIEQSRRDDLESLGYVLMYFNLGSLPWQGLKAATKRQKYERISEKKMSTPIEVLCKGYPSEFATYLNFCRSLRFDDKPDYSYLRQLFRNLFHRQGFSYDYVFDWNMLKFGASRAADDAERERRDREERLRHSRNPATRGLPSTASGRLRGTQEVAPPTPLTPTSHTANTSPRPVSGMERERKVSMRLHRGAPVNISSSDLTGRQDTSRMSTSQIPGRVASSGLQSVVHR
Method: (§1) Overexpression and purification of GST-CK1δ fusion proteins, either wild type or mutant, were performed as described previously.
(§2) Each kinase assay reaction was performed in kinase buffer (25 mM Tris-HCl (pH 7.5), 10 μM ATP, 10 mM MgCl2, 100 μM EDTA) in presence of purified GST-CK1δ kinase as source of enzyme (either wild type or mutant), an assay-specific substrate (α-casein, GST-p53^1−64, or GST-β-catenin^1−181), and radiolabeled ATP (2 μCi [γ-^32P]-ATP). For performing Michaelis–Menten analysis increasing substrate concentrations were used (α-casein: 0.39−25 μM; GST-p53^1−64: 0.09−1.87 μM; GST-β-catenin^1−181: 0.07−1.32 μM). For biological evaluation of small molecule inhibitors (SMIs), each inhibitor compound was either tested at 10 μM concentration for initial screening or by using a dilution series (0.005−10 µM) for determination of IC50 values. DMSO was used as control. Reactions were incubated for 30 min at 30 °C and reactions were stopped using 5x SDS-loading buffer (250 mM Tris-HCl [pH 6.8], 25% (v/v) β-mercaptoethanol (MSH), 50% (v/v) glycerol, 10% (w/v) SDS, 0.5% (w/v) bromphenol blue). Subsequently, samples were separated by SDS-PAGE using 12.5% acrylamide gels, stained with Coomassie, and phosphorylated substrates were visualized on X-ray film. Incorporation of radiolabeled phosphate was quantified by scintillation counting of Coomassie-stained substrate bands. Defined dilutions of the reaction master mix were counted as well in order to convert results obtained as counts per minute (CPM) to units of transferred phosphate in pmol/min. Michaelis–Menten analysis was performed using GraphPad Prism 6 (GraphPad Software, San Diego, CA, USA).

[2] = target: T2, CK1δ R115H (Homo sapiens, UniProt P48730, R115H); assay: in vitro kinase assay, CK1δ mutant R115H; format: biochemical; conditions: inhibitor at IC50 concentration previously determined for CK1δ WT; DMSO control = 100%; adjusted to WT = 50%; mean ± SD
T2 sequence (P48730 1-415 R115H): T1 sequence (P48730 1-415 R127Q) with R115H, Q127R
Method: as §1, §2

Row | SMILES | Residual activity of CK1δ R127Q [1] | Residual activity of CK1δ R115H [2]
1 | O=C(Nc1nc2ccc(C(F)(F)F)cc2[nH]1)c1csc(NC(=O)c2ccccc2OC(F)(F)F)n1 [Bischof-5] | 24 ± 8% | 36 ± 10%
2 | Cc1ccc2nc(NC(=O)CSc3nc4c(c(=O)n3-c3ccccc3)SCC4)sc2c1 [IWP-2] | 37 ± 5% | 71 ± 34%
3 | COc1ccccc1-n1c(SCC(=O)Nc2nc3ccc(C)cc3s2)nc2c(c1=O)SCC2 [IWP-4] | 36 ± 11% | 46 ± 5%
